According to patent US7109380B2, “Cyclopentenedione antifungal compounds and methods for their use” (The University of Mississippi, priority 2004, dated 2006):
Converted amounts (≈) assume the structure as drawn. Like-named read-outs stand apart in the source and are kept apart here. One block for each compound: values may come before it.

How the values were obtained:
[1] = test system: M. intracellulare ATCC 23068; test: In vitro antibacterial assay (modified method of Franzblau, Alamar Blue); type: cell-based; conditions: Mycobacterium intracellulare, ATCC23068, M. intracellulare ATCC 23068; for IC50: read-out: IC50 (50% inhibitory concentration); for MBC: read-out: MBC (Minimum Bactericidal Concentration)
C. krusei ATCC 6258 = test: In vitro antimicrobial assay (modified NCCLS), Candida media pH 4.5; type: cell-based, Candida krusei; conditions: C. krusei ATCC 6258, pH 4.5; for IC50: Pichia kudriavzevii, ATCC6258, read-out: IC50 (50% inhibitory concentration)
C. glabrata ATCC 90030 = test: as above; type: cell-based, Candida glabrata; conditions: C. glabrata ATCC 90030, pH 4.5; for IC50: read-out: IC50 (50% inhibitory concentration)
C. albicans ATCC 90028 = test: as above; type: cell-based, Candida albicans; conditions: C. albicans ATCC 90028, pH 4.5, Table 3; for IC50: read-out: IC50 (50% inhibitory concentration)
[2] = test system: Cryptococcus neoformans ATCC 90113; test: In vitro antifungal susceptibility testing (modified NCCLS method); type: cell-based; conditions: for IC50: read-out: IC50 (50% inhibitory concentration)
[3] = test system: Candida albicans ATCC 90028; test: In vitro antifungal susceptibility testing (modified NCCLS method), media pH 7.3; type: cell-based; conditions: Candida albicans ATCC 90028, Table 1
[4] = Nakaseomyces glabratus, ATCC90030
[5] = Candida albicans, ATCC90028, read-out: MIC
[6] = Cryptococcus neoformans, ATCC90113, Cr. neoformans ATCC 90113, Table 3
[7] = Cr. neoformans ATCC 90113, Table 3
[8] = Cryptococcus neoformans ATCC 90113, Table 1

MIC [1]: 20 µg/mL (≈ 74.5 µM)
IC50 [1]: 7.5 µg/mL (≈ 28 µM)
IC50 (C. krusei ATCC 6258): 8 µg/mL (≈ 29.8 µM)
IC50 (C. glabrata ATCC 90030; [4]): 4.5 µg/mL (≈ 16.8 µM)
MIC (C. glabrata ATCC 90030; Nakaseomyces glabratus, ATCC90030, read-out: MIC): 10 µg/mL (≈ 37.3 µM)
IC50 (C. albicans ATCC 90028; Candida albicans, ATCC90028): 2 µg/mL (≈ 7.45 µM)
MIC (C. albicans ATCC 90028; [5]): 5 µg/mL (≈ 18.6 µM)
IC50 [2, 6]: 2 µg/mL (≈ 7.45 µM)
MIC ([2]; Cryptococcus neoformans, ATCC90113, Cr. neoformans ATCC 90113, Table 3, read-out: MIC): 20 µg/mL (≈ 74.5 µM)
SMILES: CCOC(/C=C/c1ccccc1)=C1/C(=O)C=C(C)C1=O [Compound 7]
MBC [1]: 20 µg/mL (≈ 74.5 µM)
MFC (C. glabrata ATCC 90030; Nakaseomyces glabratus, ATCC90030, read-out: MFC): 20 µg/mL (≈ 74.5 µM)
MFC (C. albicans ATCC 90028; Candida albicans, ATCC90028, read-out: MFC): 10 µg/mL (≈ 37.3 µM)

IC50 (50% inhibitory concentration) (C. krusei ATCC 6258): 0.45 µg/mL (≈ 0.487 µM)
MIC (C. krusei ATCC 6258): 1.25 µg/mL (≈ 1.35 µM)
IC50 (50% inhibitory concentration) (C. glabrata ATCC 90030): 0.20 µg/mL (≈ 0.216 µM)
MIC (C. glabrata ATCC 90030): 1.25 µg/mL (≈ 1.35 µM)
MIC (Minimum Inhibitory Concentration) [3]: 2.50 µg/mL (≈ 2.71 µM)
IC50 (50% inhibitory concentration) (C. albicans ATCC 90028): 0.45 µg/mL (≈ 0.487 µM)
MIC (C. albicans ATCC 90028): 1.25 µg/mL (≈ 1.35 µM)
IC50 (50% inhibitory concentration) [2, 7]: 0.50 µg/mL (≈ 0.541 µM)
MIC [2, 7]: 1.25 µg/mL (≈ 1.35 µM)
MIC (Minimum Inhibitory Concentration) [2, 8]: 2.5 µg/mL (≈ 2.71 µM)
SMILES: C[C@@H]1[C@H](O)[C@@H](C)/C=C/C=C/C=C/C=C/C=C/C=C/C=C/[C@H](O[C@@H]2O[C@H](C)[C@@H](O)[C@H](N)[C@@H]2O)C[C@@H]2O[C@](O)(C[C@@H](O)C[C@@H](O)[C@H](O)CC[C@@H](O)C[C@@H](O)CC(=O)O[C@H]1C)C[C@H](O)[C@H]2C(=O)O [Amphotericin B, reference compound]
MFC (C. krusei ATCC 6258): 1.25 µg/mL (≈ 1.35 µM)
MFC (C. glabrata ATCC 90030): 1.25 µg/mL (≈ 1.35 µM)
MFC (Minimum Fungicidal Concentration) [3]: 5.00 µg/mL (≈ 5.41 µM)
MFC (C. albicans ATCC 90028): 1.25 µg/mL (≈ 1.35 µM)
MFC [2, 7]: 1.25 µg/mL (≈ 1.35 µM)
MFC (Minimum Fungicidal Concentration) [2, 8]: 2.5 µg/mL (≈ 2.71 µM)

MIC [1]: 20 µg/mL (≈ 70.8 µM)
IC50 [1]: 15 µg/mL (≈ 53.1 µM)
IC50 (C. krusei ATCC 6258): 9 µg/mL (≈ 31.9 µM)
IC50 (C. glabrata ATCC 90030; [4]): 5.5 µg/mL (≈ 19.5 µM)
IC50 (C. albicans ATCC 90028; Candida albicans, ATCC90028): 1 µg/mL (≈ 3.54 µM)
MIC (C. albicans ATCC 90028; [5]): 10 µg/mL (≈ 35.4 µM)
IC50 [2, 6]: 4.5 µg/mL (≈ 15.9 µM)
SMILES: CC(=O)OC(/C=C/c1ccccc1)=C1/C(=O)C=C(C)C1=O [Compound 8]
MBC [1]: 20 µg/mL (≈ 70.8 µM)
